Consider 20 compounds from patent US11897867B2, “6-phenyl-4,5-dihydropyridazin-3(2H)-one derivatives as PDE3A and PDE3B inhibitors for treating cancer” (Bayer Aktiengesellschaft, priority 2017, dated 2024).

Some results are limits rather than exact numbers.

One assay concerns SK-MEL-3 (melanoma). The assay is described as follows: Cell proliferation measurement (Cell Titer Glo), SK-MEL-3. Type of assay: cell-based. To be noted: Homo sapiens, SK-MEL3, SK-MEL-3 cells, 72 h treatment, read-out: Anti-proliferation IC50 SK-MEL-3 (melanoma). How it is done:
(§1) The antiproliferative activity of the compounds of the general formula (I) was examined in vitro in human cancer cells. For this purpose, 1000 cells (or 500 HeLa cells) were plated in 384-well plates with appropriate growth medium and incubated at 37° C. overnight. After 24 h, the cells on the test plate were treated with the compounds of the general formula (I) as and incubated at 37° C. for 72 h. The compounds were added to the cells by means of an HP D300 digital dispenser in a 10 (or more)-step dilution series. As control, the cells were treated with vehicle (DMSO at 0.3% final concentration). After 72 h, the cells were treated with 20 μl/well of 50% CTG solution in PBS (Promega Cell Titer Glo (catalogue #G755B and G756B)) and incubated at room temperature for 10 min, and luminescence was measured by means of a VICTOR V (Perkin Elmer), in order to determine cell viability at the end of treatment. The percentage effect on cell growth and the IC50 derived therefrom were determined for each test substance using the values from untreated wells (=percent viability). The IC50 values were calculated using a 4-parameter fit.
(In ATP-based viability assays light output follows the ATP content of the culture.)

The target of a further assay is T1, human full length PDE3B (Homo sapiens, UniProt Q13370).
T1 construct: Sf9 cells overexpressing human full length PDE3B; purchased SB Drug Discovery, UK; host or cells: Sf9 cells (cell extract)
T1 sequence (Q13370 whole entry): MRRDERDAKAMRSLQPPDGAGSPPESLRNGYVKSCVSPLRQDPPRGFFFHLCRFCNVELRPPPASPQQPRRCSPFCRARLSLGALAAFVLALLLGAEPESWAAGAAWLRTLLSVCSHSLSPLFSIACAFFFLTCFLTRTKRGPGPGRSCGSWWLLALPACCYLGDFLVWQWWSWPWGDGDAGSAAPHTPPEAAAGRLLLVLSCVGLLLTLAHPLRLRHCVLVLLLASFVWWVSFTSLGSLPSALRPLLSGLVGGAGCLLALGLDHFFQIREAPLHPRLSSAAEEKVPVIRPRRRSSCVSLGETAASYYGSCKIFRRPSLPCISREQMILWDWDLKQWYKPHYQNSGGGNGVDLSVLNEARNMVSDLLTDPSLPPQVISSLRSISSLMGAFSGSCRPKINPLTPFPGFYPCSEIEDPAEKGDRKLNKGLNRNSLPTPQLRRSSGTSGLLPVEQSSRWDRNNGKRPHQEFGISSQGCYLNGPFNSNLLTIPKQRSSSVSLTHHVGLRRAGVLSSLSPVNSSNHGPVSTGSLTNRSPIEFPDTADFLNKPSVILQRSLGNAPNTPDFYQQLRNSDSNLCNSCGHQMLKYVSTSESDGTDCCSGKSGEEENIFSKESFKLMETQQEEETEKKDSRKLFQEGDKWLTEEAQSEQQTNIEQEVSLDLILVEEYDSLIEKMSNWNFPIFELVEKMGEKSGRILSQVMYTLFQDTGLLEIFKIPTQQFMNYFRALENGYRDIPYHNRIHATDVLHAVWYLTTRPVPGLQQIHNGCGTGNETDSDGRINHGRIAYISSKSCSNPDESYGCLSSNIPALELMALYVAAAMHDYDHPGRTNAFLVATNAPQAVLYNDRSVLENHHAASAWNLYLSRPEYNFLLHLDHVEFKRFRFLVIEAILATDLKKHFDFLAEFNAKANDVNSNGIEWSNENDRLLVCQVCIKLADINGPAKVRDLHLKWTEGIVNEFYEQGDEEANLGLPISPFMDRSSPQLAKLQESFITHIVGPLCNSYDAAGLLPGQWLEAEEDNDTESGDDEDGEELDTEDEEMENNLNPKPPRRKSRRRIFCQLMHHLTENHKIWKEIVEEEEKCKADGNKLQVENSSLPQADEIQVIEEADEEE
Briefly: PDE3B enzyme inhibition (3H-cAMP Scintillation Proximity Assay). Type of assay: biochemical. To be noted: PDE3B cell extract from Sf9 cells, 60 min room temperature; read-out: Target IC50 PDE3B IC50. How it is done: The commercially available 3H-cAMP Scintillation Proximity Assay (SPA, Perkin Elmer) system was used for enzyme inhibition studies. For the determination of the in vitro effect of test substances on the PDE3B reactions 2 μl of the respective test compound solution in DMSO (serial dilutions) were placed in wells of microtiter plates (Isoplate-96/200W; Perkin Elmer). 50 μl of a dilution of PDE3B cell extract from Sf9 cells overexpressing human full length PDE3B (SB Drug Discovery, UK) in buffer A (50 mM Tris/HCl pH 7.5, 8.3 mM MgCl2, 1.7 mM EDTA, 0.2% BSA) was added. The dilution of the PDE3B cell extract was chosen such that the reaction kinetics was linear and less than 70% of the substrate was consumed (typical dilution 1:6000). The reaction was started by addition of 50 μl (0.025 μCi) of 1:2000 in buffer A w/o BSA diluted substrate [8-3H] adenosine 3′,5′-cyclic phosphate (1 μCi/μl; Perkin Elmer). After incubation at room temperature for 60 min, the reaction was stopped by addition of 25 μl of a suspension containing 18 mg/ml yttrium scintillation proximity beads (Perkin Elmer) in water. The microtiter plates were sealed and measured in a Microbeta scintillation counter (PerkinElmer Wallac). IC50 values were determined from sigmoidal curves by plotting percentage PDE3B activity vs log compound concentration.

For a further assay, the target named is T2, human full length PDE3A (Homo sapiens, UniProt Q14432).
T2 construct: Sf9 cells overexpressing human full length PDE3A; purchased SB Drug Discovery, UK; host or cells: Sf9 cells (cell extract)
T2 sequence (Q14432 whole entry): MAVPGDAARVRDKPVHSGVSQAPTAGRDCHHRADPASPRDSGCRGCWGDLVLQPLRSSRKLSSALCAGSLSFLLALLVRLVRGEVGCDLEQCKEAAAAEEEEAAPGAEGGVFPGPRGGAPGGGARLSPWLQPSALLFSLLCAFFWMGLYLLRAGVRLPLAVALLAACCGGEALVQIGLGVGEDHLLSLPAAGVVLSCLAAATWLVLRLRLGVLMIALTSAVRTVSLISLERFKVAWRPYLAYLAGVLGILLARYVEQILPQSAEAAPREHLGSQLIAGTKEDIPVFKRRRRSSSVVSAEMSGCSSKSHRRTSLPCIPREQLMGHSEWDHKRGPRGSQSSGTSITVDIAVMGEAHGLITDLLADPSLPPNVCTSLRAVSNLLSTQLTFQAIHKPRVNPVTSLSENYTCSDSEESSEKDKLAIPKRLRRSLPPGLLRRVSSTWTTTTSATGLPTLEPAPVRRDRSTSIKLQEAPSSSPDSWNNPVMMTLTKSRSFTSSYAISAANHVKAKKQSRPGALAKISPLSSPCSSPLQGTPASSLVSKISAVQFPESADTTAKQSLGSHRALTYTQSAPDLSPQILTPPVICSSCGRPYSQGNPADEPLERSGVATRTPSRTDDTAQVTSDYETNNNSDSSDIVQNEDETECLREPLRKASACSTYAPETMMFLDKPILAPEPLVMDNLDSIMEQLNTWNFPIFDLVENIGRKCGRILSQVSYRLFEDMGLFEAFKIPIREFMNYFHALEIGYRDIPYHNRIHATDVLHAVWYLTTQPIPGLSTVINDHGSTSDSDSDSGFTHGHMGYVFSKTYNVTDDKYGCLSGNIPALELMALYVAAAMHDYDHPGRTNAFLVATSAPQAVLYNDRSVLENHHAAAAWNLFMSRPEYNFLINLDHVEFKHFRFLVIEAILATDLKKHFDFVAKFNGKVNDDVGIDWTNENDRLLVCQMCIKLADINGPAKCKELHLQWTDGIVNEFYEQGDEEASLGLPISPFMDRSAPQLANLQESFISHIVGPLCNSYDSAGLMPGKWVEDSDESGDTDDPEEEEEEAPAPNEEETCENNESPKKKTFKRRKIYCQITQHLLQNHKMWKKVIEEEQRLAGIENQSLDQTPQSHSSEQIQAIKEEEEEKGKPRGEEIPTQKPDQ
The assay is described as follows: PDE3A enzyme inhibition (3H-cAMP Scintillation Proximity Assay). The class given is biochemical. To be noted: PDE3A cell extract from Sf9 cells, 60 min room temperature; read-out: Target IC50 PDE3A IC50. The procedure:
The commercially available 3H-cAMP Scintillation Proximity Assay (SPA, Perkin Elmer) system was used for enzyme inhibition studies. For the determination of the in vitro effect of test substances on the PDE3A reactions 2 μl of the respective test compound solution in DMSO (serial dilutions) were is placed in wells of microtiter plates (Isoplate-96/200W; Perkin Elmer). 50 μl of a dilution of PDE3A cell extract from Sf9 cells overexpressing human full length PDE3A (SB Drug Discovery, UK) in buffer A (50 mM Tris/HCl pH 7.5, 8.3 mM MgCl2, 1.7 mM EDTA, 0.2% BSA) was added. The dilution of the PDE3A cell extract was chosen such that the reaction kinetics was linear and less than 70% of the substrate was consumed (typical dilution 1:5000). The reaction was started by addition of 50 μl (0.025 μCi) of 1:2000 in buffer A w/o BSA diluted substrate [8-3H] adenosine 3′,5′-cyclic phosphate (1 μCi/μl; Perkin Elmer). After incubation at room temperature for 60 min, the reaction was stopped by addition of 25 μl of a suspension containing 18 mg/ml yttrium scintillation proximity beads (Perkin Elmer) in water. The microtiter plates were sealed and measured in a Microbeta scintillation counter (PerkinElmer Wallac). IC50 values were determined from sigmoidal curves by plotting percentage PDE3A activity vs log compound concentration.
A general note: In a scintillation proximity assay essentially only radioactivity close to the scintillant gives light.

Assay [1] concerns HeLa cells (cervical cancer). The assay is described as follows: Cell proliferation measurement (Cell Titer Glo), HeLa. Type of assay: cell-based. To be noted: Homo sapiens, 72 h treatment, read-out: Anti-proliferation IC50 HeLa (Cervical cancer). The procedure: as §1

Regarding `O=C1CCC(c2ccc(-c3ccccc3OC(F)(F)F)c(F)c2)=NN1` [Example 44, 6-[2-fluoro-2′-(trifluoromethoxy)[1,1′-biphenyl]-4-yl]-4,5-dihydropyridazin-3(2H)-one], the IC50 stood at 34.5 nM in the assay on SK-MEL-3 (melanoma), 95 nM on human full length PDE3B, 180 nM on human full length PDE3A and 17.9 nM in assay [1].
With `O=C1CCC(c2ccc(-c3ccoc3)c(F)c2)=NN1` [Example 45, 6-[3-fluoro-4-(furan-3-yl)phenyl]-4,5-dihydropyridazin-3(2H)-one], the IC50 was 13.7 nM with SK-MEL-3 (melanoma), 310 nM on human full length PDE3B, 370 nM at human full length PDE3A and 10.4 nM in assay [1].
For `N#Cc1ccc(-c2ccc(C3=NNC(=O)CC3)cc2F)cc1` [Example 46, 2′-fluoro-4′-(6-oxo-1,4,5,6-tetrahydropyridazin-3-yl)[1,1′-biphenyl]-4-carbonitrile], the IC50 in the assay with SK-MEL-3 (melanoma) is 12.7 nM; at human full length PDE3B, 37 nM; at human full length PDE3A it was 61 nM; in assay [1], 9.65 nM.
The matching figures for `N#Cc1cccc(-c2ccc(C3=NNC(=O)CC3)cc2F)c1` [Example 47, 2′-fluoro-4′-(6-oxo-1,4,5,6-tetrahydropyridazin-3-yl)[1,1′-biphenyl]-3-carbonitrile]: 19.3 nM, 96 nM, 95 nM and 13.7 nM.
Regarding `Cc1ccc(-c2ccc(C3=NNC(=O)CC3)cc2F)cc1N` [Example 48, 6-(3′-amino-2-fluoro-4′-methyl[1,1′-biphenyl]-4-yl)-4,5-dihydropyridazin-3(2H)-one], the IC50 with SK-MEL-3 (melanoma) was 20.9 nM; at human full length PDE3B, 260 nM; on human full length PDE3A, 230 nM; in assay [1] it was 13.1 nM.
The matching figures for `O=C1CCC(c2ccc(-c3cccc(O)c3)c(F)c2)=NN1` [Example 49, 6-(2-fluoro-3′-hydroxy[1,1′-biphenyl]-4-yl)-4,5-dihydropyridazin-3(2H)-one]: 8.88 nM, 41 nM, 63 nM and 40.6 nM.
Regarding `O=C1CCC(c2ccc(-c3ccccc3O)c(F)c2)=NN1` [Example 50, 6-(2-fluoro-2′-hydroxy[1,1′-biphenyl]-4-yl)-4,5-dihydropyridazin-3(2H)-one], the IC50 in the assay with SK-MEL-3 (melanoma) worked out at 4.03 nM; at human full length PDE3B, 130 nM; at human full length PDE3A it was 130 nM; in assay [1], 2.83 nM.
With `O=C1CCC(c2ccc(-c3ccc(F)c(F)c3)c(F)c2)=NN1` [Example 51, 6-(2,3′,4′-trifluoro[1,1′-biphenyl]-4-yl)-4,5-dihydropyridazin-3(2H)-one], the IC50 with SK-MEL-3 (melanoma) stood at 9.51 nM; at human full length PDE3B it was 92 nM; at human full length PDE3A, 120 nM; in assay [1] it was 5.26 nM.
In the case of `CCOc1ccccc1-c1ccc(C2=NNC(=O)CC2)cc1F` [Example 52, 6-(2′-ethoxy-2-fluoro[1,1′-biphenyl]-4-yl)-4,5-dihydropyridazin-3(2H)-one], the IC50 in the assay with SK-MEL-3 (melanoma) was over 100 nM; at human full length PDE3B it was 65 nM; at human full length PDE3A it was 95 nM; in assay [1], 66.8 nM.
Consider `O=C1CCC(c2ccc(-c3cccc(F)c3F)c(F)c2)=NN1` [Example 53, 6-(2,2′,3′-trifluoro[1,1′-biphenyl]-4-yl)-4,5-dihydropyridazin-3(2H)-one], for which the IC50 in the assay with SK-MEL-3 (melanoma) came to 6.78 nM; on human full length PDE3B, 34 nM; at human full length PDE3A, 68 nM; in assay [1], 3.82 nM.
Turning to `O=C1CCC(c2ccc(-c3cc(F)cc(F)c3)c(F)c2)=NN1` [Example 54, 6-(2,3′,5′-trifluoro[1,1′-biphenyl]-4-yl)-4,5-dihydropyridazin-3(2H)-one], the IC50 with SK-MEL-3 (melanoma) came out at 37.8 nM; on human full length PDE3B, 380 nM; on human full length PDE3A, 190 nM; in assay [1], 18.5 nM.
As for `O=C1CCC(c2ccc(-c3ccc(F)cc3F)c(F)c2)=NN1` [Example 55, 6-(2,2′,4′-trifluoro[1,1′-biphenyl]-4-yl)-4,5-dihydropyridazin-3(2H)-one], the IC50 is 3.39 nM with SK-MEL-3 (melanoma), 62 nM at human full length PDE3B, 50 nM on human full length PDE3A and 1.96 nM in assay [1].
On to `Cc1ccc(-c2ccc(C3=NNC(=O)CC3)cc2F)c(C)c1` [Example 56, 6-(2-fluoro-2′,4′-dimethyl[1,1′-biphenyl]-4-yl)-4,5-dihydropyridazin-3(2H)-one], for which the IC50 with SK-MEL-3 (melanoma) was found to be 7.24 nM; at human full length PDE3B, 62 nM; on human full length PDE3A, 110 nM; in assay [1], 4.34 nM.
For the compound `Cc1ccc(F)cc1-c1ccc(C2=NNC(=O)CC2)cc1F` [Example 57, 6-(2,5′-difluoro-2′-methyl[1,1′-biphenyl]-4-yl)-4,5-dihydropyridazin-3(2H)-one], the IC50 with SK-MEL-3 (melanoma) worked out at 11.8 nM; on human full length PDE3B, 60 nM; at human full length PDE3A, 180 nM; in assay [1], 5.34 nM.
`Cc1ccc(-c2ccc(C3=NNC(=O)CC3)cc2F)cc1F` [Example 58, 6-(2,3′-difluoro-4′-methyl[1,1′-biphenyl]-4-yl)-4,5-dihydropyridazin-3(2H)-one]: the IC50 in the assay with SK-MEL-3 (melanoma) was 7.7 nM; on human full length PDE3B, 83 nM; at human full length PDE3A it was 250 nM; in assay [1], 4.69 nM.
Consider `O=C1CCC(c2ccc(-c3ccccc3F)c(F)c2)=NN1` [Example 60, 6-(2,2′-difluoro[1,1′-biphenyl]-4-yl)-4,5-dihydropyridazin-3(2H)-one], for which the IC50 with SK-MEL-3 (melanoma) is 4.2 nM; at human full length PDE3B it was 47 nM; on human full length PDE3A it was 96 nM; in assay [1] it was 2.08 nM.
Consider `COc1ccccc1-c1ccc(C2=NNC(=O)CC2)cc1F` [Example 62, 6-(2-fluoro-2′-methoxy[1,1′-biphenyl]-4-yl)-4,5-dihydropyridazin-3(2H)-one], for which the IC50 in the assay on SK-MEL-3 (melanoma) came out at 22.8 nM; at human full length PDE3B, 47 nM; on human full length PDE3A, 120 nM; in assay [1], 14 nM.
In the same order, the values of `O=C1CCC(c2ccc(-c3cccc(F)c3)c(F)c2)=NN1` [Example 63, 6-(2,3′-difluoro[1,1′-biphenyl]-4-yl)-4,5-dihydropyridazin-3(2H)-one] are 6.4 nM, 88 nM, 250 nM and 4.75 nM.
In the same order, the values of `COc1cccc(-c2ccc(C3=NNC(=O)CC3)cc2F)c1` [Example 64, 6-(2-fluoro-3′-methoxy[1,1′-biphenyl]-4-yl)-4,5-dihydropyridazin-3(2H)-one] are 23.1 nM, 91 nM, 100 nM and 12 nM.
The matching figures for `Nc1cccc(-c2ccc(C3=NNC(=O)CC3)cc2F)c1` [Example 65, 6-(3′-amino-2-fluoro[1,1′-biphenyl]-4-yl)-4,5-dihydropyridazin-3(2H)-one]: 16.9 nM, 76 nM, 120 nM and 12.8 nM.
